# Literature values in paper PMC7221964 (Molecules, 2020).
# Like-named read-outs stand apart in the source and are kept apart here.
# System: epigenetic reader proteins
# Description: ITC studies provided thermodynamic parameters (Gibbs free energy of binding ΔG°, enthalpy of binding ΔH°, entropy of binding ΔS°) for the association between five ...
smiles,measurement,setting,value
"C[N+](C)(C)CCSCC(N)C(=O)O (centres unmarked) [KCme3, trimethylthialysine]",recognition by reader proteins,different epigenetic reader proteins,well recognized
C[N+](C)(C)CCCCCC(N)C(=O)O (centres unmarked) [trimethylhomolysine],recognition by reader proteins,panel of the same five reader proteins,very well recognized
